In ChEMBL document CHEMBL5727727, “(Aza)pyridopyrazolopyrimidinones and indazolopyrimidinones and their use” (2020):

Assay: Plasma-Based Clot Lysis Assay: The clot-lysis test system configures the kinetics of clot formation and degradation in vitro and allows quantifying modulation of the process by selected test compounds.The test compounds were dissolved in 1% acetic acid and further complemented with an equal volume of DMSO. The resulting stock solutions were serially diluted in 0.5% acetic acid/50% DMSO. 1 μL aliquots of these solutions were placed into 384 well microplates (Greiner, black, transparent bottom), followed by 30 μL of diluted human citrated plasma (platelet-poor, final concentration: 5%; supplemented with fibrinogen, final concentration: 3 μM; dilution buffer: 20 mM HEPES, 150 mM NaCl, 0.01% Brij (pH 7)). The reactions were started by addition of 20 μL of CaCl2 (final concentration: 10 mM), and tPA (tissue plasminogen activator, final concentration: 0.2 nM) in dilution buffer, followed by an additional volume of 20 μL dilution buffer for improved mixing. The reactions were incubated at 37° C. Clot formation and degradation was monitored spectrophotometrically by kinetic optical density measurements at 405 nm. IC50 values were determined by comparing the resulting time courses with the time course of a blank control reaction.

| SMILES | IC50 |
| --- | --- |
| Nc1cccc2nn3c(C4CCNCC4)cc(=O)[nH]c3c12 | 35 nM |
| O=c1cc(C2CCNCC2)n2nc3cncc(Br)c3c2[nH]1 | 100 nM |
| O=c1cc(C2CCNCC2)n2nc3cc(F)cnc3c2[nH]1 | 21 nM |
